This is an account of results in US8158657B2, “Heterocycles substituted pyridine derivatives and antifungal agent containing thereof” (Eisai R&D Management Co., Ltd., priority 2005, dated 2012).

Assay [1] has as its system A. fumigatus Tsukuba strain. The assay can be described thus: Anti-Aspergillus activity, MIC measurement. Type of assay: cell-based. Particulars: RPMI1640, 42-48 hours at 35° C., visual inspection, read-out: Anti-Aspergillus Activity (minimum inhibitory concentration, MIC). In short, it runs like this:
(§1)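 C. albicans CAF2-1 was grown 48 h at 30° C. in SDB and diluted in RPMI1640 to 1.2×10^3 cells/mL. Frozen A. fumigatus Tsukuba was diluted to 4.5×10^3 cells/mL. Compounds, two-fold serially diluted in DMSO from 2.5 mg/mL, were cultured aerobically with fungi for 42-48 h at 35° C.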

In assay [2] the test system is C. albicans E81022 strain. Put plainly: Experimental systemic candidal infection model in mice. Type of assay: in vivo. Conditions: peroral, 3 times every 4 hours, female ICR mice, observed until 14 days after infection. The procedure:
A standing culture of C. albicans E81022 strain was carried out for 48 hours at 30° C. in sabouraud dextrose agar medium (SDA), the recovered fungal cells were suspended in sterilized physiological saline. By counting the fungal number on cytometry plate, the suspension was diluted to 2×10^7 cells/mL with sterilized physiological saline to serve fungal inoculum.
The fungal inoculum was used in the amounts of 0.2 mL to inoculate 4.5 to 5.5 week-old female ICR mice in the tail vein (4×10^6 cells/mouse).
From 0.5 to 1 hour after fungal inoculation, 0.2 mL of agent solution (dissolved or suspended in sterilized physiological saline containing 6.5% dimethyl sulfoxide and 3.5% Tween 80) was administered into the stomach using a peroral probe, 3 times every 4 hours. The agent concentration was 2.5 mg/kg or 10 mg/kg, and the number of animals in one group was 5 animals.
The protective effect was determined by observing life/death until 14 days after infection and calculating the mean survival days.

Assay [3] relates to C. albicans CAF2-1 strain. The assay can be described thus: Anti-Candida activity, MIC measurement. Type of assay: cell-based. Conditions: CAF21STRAIN, read-out: Anti-Candida Activity (minimum inhibitory concentration, MIC). In short, it runs like this:
as §1

The mark [4] stands for this setting: C. albicans CAF2-1, RPMI1640, 42-48 hours at 35° C., visual inspection.

≈ marks a conversion by molar mass, not a printed value. Like-named read-outs stand apart in the source and are kept apart here.

Take `Nc1ncccc1-c1cc(Cc2ccc(OCc3ccccc3)cc2)no1` [Example 1, 3-(3-(4-Benzyloxy-benzyl)-isoxazol-5-yl)-pyridin-2-ylamine]: the MIC in assay [1] and in assay [3] (setting [4]) was 0.2 µg/mL (≈ 0.56 µM) throughout. Moreover, the “Mean Survival Days” value in assay [2] (2.5 mg/kg) came out at 12.2 days; in assay [2] (10 mg/kg) it was 14.0 days.

Consider `Nc1ncccc1-c1cc(Cc2ccc(COc3ccccn3)cc2)no1` [Example 2, 3-(3-(4-(Pyridin-2-yloxymethyl)-benzyl)-isoxazol-5-yl)-pyridin-2-ylamine], for which the MIC was determined as 0.2 µg/mL (≈ 0.558 µM) in assay [1] and 0.05 µg/mL (≈ 0.14 µM) in assay [3] (setting [4]). Further, the results for the “Mean Survival Days” value in assay [2] (2.5 mg/kg) and in assay [2] (10 mg/kg) were 13.2 days and 14.0 days, respectively.

As to `Nc1ncccc1-c1cc(Cc2ccc(OCc3ccccn3)cc2)no1` [Example 9, 3-(3-(4-(Pyridin-2-ylmethoxy)-benzyl)-isoxazol-5-yl)-pyridin-2-ylamine], the figures for the MIC in assay [1] and in assay [3] (setting [4]) were 0.39 µg/mL (≈ 1.09 µM) and 0.2 µg/mL (≈ 0.558 µM), respectively. In addition, the “Mean Survival Days” value in assay [2] (2.5 mg/kg) was found to be 12.8 days; in assay [2] (10 mg/kg), 14.0 days.

Turning to `Cc1ccnc(COc2ccc(Cc3cc(-c4cccnc4N)on3)cc2)c1` [Example 11, 3-(3-(4-(4-Methyl-pyridin-2-ylmethoxy)-benzyl)-isoxazol-5-yl)-pyridin-2-ylamine], the MIC is 0.39 µg/mL (≈ 1.05 µM) in assay [1] and 0.1 µg/mL (≈ 0.269 µM) in assay [3] (setting [4]). Also, the “Mean Survival Days” value in assay [2] (2.5 mg/kg) is 8.2 days; in assay [2] (10 mg/kg), 13.6 days.

As to `c1ccc(COc2ccc(Cc3cc(-c4cccnc4)on3)cc2)nc1` [Example 203, 3-(3-(4-(Pyridin-2-ylmethoxy)-benzyl)-isoxazol-5-yl)-pyridine], the MIC in assay [1] amounted to 1.56 µg/mL (≈ 4.54 µM); in assay [3] (setting [4]), 0.2 µg/mL (≈ 0.582 µM).

Turning to `Nc1ncccc1-c1cc(Cc2ccc(COc3ccccn3)cc2F)no1` [Example 204, 3-(3-(2-Fluoro-4-(pyridin-2-yloxymethyl)-benzyl)-isoxazol-5-yl)-pyridin-2-ylamine], the MIC in assay [1] is 0.39 µg/mL (≈ 1.04 µM); in assay [3] (setting [4]), 0.2 µg/mL (≈ 0.531 µM).

Consider `Nc1ncccc1-c1cc(Cc2ccc(SCc3ccccc3)cc2)no1` [Example 205, 3-(3-(4-Benzylsulfanyl-benzyl)-isoxazol-5-yl)-pyridin-2-ylamine], for which the MIC was 0.78 µg/mL (≈ 2.09 µM) in assay [1] and 0.39 µg/mL (≈ 1.04 µM) in assay [3] (setting [4]).

With `Nc1ncccc1-c1cc(Cc2ccc(CSc3ccccc3)cc2)no1` [Example 206], the MIC in assay [1] stood at 0.39 µg/mL (≈ 1.04 µM); in assay [3] (setting [4]) it was 0.1 µg/mL (≈ 0.268 µM).

Take `Nc1ncccc1-c1cc(Cc2ccc(Br)cc2)no1` [Example 207, 3-(3-(4-bromo-benzyl)-isoxazol-5-yl)-pyridin-2-ylamine]: the values for the MIC in assay [1] and in assay [3] (setting [4]) were 6.25 µg/mL (≈ 18.9 µM) and 25 µg/mL (≈ 75.7 µM), respectively.

Take `Nc1ncccc1-c1cc(Cc2ccc(Cc3ccc(F)cc3)o2)no1` [Example 208, 3-(3-(5-(4-Fluoro-benzyl)-furan-2-ylmethyl)-isoxazol-5-yl)-pyridin-2-ylamine]: the MIC in assay [1] amounted to 0.78 µg/mL (≈ 2.23 µM); in assay [3] (setting [4]) it was 6.25 µg/mL (≈ 17.9 µM).

On to `Nc1ncccc1-c1cc(Cc2ccc(Oc3ccccn3)cc2)no1` [Example 209, 3-(3-(4-(Pyridin-2-yloxy)-benzyl)-isoxazol-5-yl)-pyridin-2-ylamine], for which the MIC is 0.39 µg/mL (≈ 1.13 µM) in assay [1] and 0.2 µg/mL (≈ 0.581 µM) in assay [3] (setting [4]).

For the compound `Nc1ncccc1-c1cc(Cc2ccc(Cc3ccccc3)nc2)no1` [Example 210, 3-(3-(6-Benzyl-pyridin-3-ylmethyl)-isoxazol-5-yl)-pyridin-2-ylamine], the MIC is 0.2 µg/mL (≈ 0.584 µM) in assay [1] and 0.1 µg/mL (≈ 0.292 µM) in assay [3] (setting [4]).

As to `Nc1ccc(-c2cc(Cc3ccc(COc4ccccn4)cc3F)no2)c(N)n1` [Example 211, 3-(3-(2-Fluoro-4-(pyridin-2-yloxymethyl)-benzyl)-isoxazol-5-yl)-pyridin-2,6-diamine], the MIC in assay [1] and in assay [3] (setting [4]) was 0.39 µg/mL (≈ 0.996 µM) each time.

In the case of `N#Cc1cccc(COc2ccc(Cc3cc(-c4ccc(N)nc4N)on3)cc2)c1` [Example 212, 3-(4-(5-(2,6-Diamino-pyridin-3-yl)-isoxazol-3-ylmethyl)-phenoxymethyl)benzonitrile], the MIC in assay [1] and in assay [3] (setting [4]) was 0.78 µg/mL (≈ 1.96 µM) in each case.

`COC(=O)c1cccc(COc2ccc(Cc3cc(-c4ccc(N)nc4N)on3)cc2)c1` [Example 213, 3-(4-(5-(2,6-Diamino-pyridin-3-yl)-isoxazol-3-ylmethyl)-phenoxymethyl)benzoic acid methyl ester]: the values for the MIC in assay [1] and in assay [3] (setting [4]) were 1.56 µg/mL (≈ 3.62 µM) and 6.25 µg/mL (≈ 14.5 µM), respectively.

On to `C#Cc1cccc(COc2ccc(Cc3cc(-c4ccc(N)nc4N)on3)cc2)c1` [Example 214, 3-(3-(4-(3-Ethynyl-benzyloxy)-benzyl)-isoxazol-5-yl)-pyridin-2,6-diamine], for which the MIC in assay [1] and in assay [3] (setting [4]) was 0.39 µg/mL (≈ 0.984 µM) in each case.

As to `Nc1ccc(-c2cc(Cc3ccc(Oc4cncc(Cl)n4)cc3)no2)c(N)n1` [Example 215, 3-(3-(4-(6-Chloro-pyrazin-2-yloxy)-benzyl)-isoxazol-5-yl)-pyridin-2,6-diamine], the MIC in assay [1] turned out to be 0.78 µg/mL (≈ 1.98 µM); in assay [3] (setting [4]), 0.39 µg/mL (≈ 0.988 µM).

With `Nc1ccc(-c2cc(Cc3ccc(SCc4ccccc4)cc3)no2)c(N)n1` [Example 216, 3-(3-(4-Benzylsulfanyl-benzyl)-isoxazol-5-yl)-pyridin-2,6-diamine], the MIC in assay [1] and in assay [3] (setting [4]) was 0.39 µg/mL (≈ 1 µM) each time.

With `Nc1ccc(-c2cc(Cc3ccc(CSc4ccccc4)cc3)no2)c(N)n1` [Example 217, 3-(3-(4-Phenylsulfanylmethyl-benzyl)-isoxazol-5-yl)-pyridin-2,6-diamine], the MIC turned out to be 0.2 µg/mL (≈ 0.515 µM) in assay [1] and 0.1 µg/mL (≈ 0.257 µM) in assay [3] (setting [4]).

Turning to `CC(C)=CCOc1ccc(Cc2cc(-c3ccc(N)nc3N)on2)cc1` [Example 218, 3-(3-(4-(3-Methyl-2-but-2-enyloxy)-benzyl)-isoxazol-5-yl)-pyridin-2,6-diamine], the MIC came to 0.1 µg/mL (≈ 0.285 µM) in assay [1] and 0.2 µg/mL (≈ 0.571 µM) in assay [3].

Regarding `C#CCOc1ccc(Cc2cc(-c3ccc(N)nc3N)on2)cc1` [Example 219, 3-(3-(4-Prop-2-ynyloxy-benzyl)-isoxazol-5-yl)-pyridine-2,6-diamine], the MIC in assay [1] and in assay [3] (setting [4]) was 3.13 µg/mL (≈ 9.77 µM) throughout.

As for `Nc1ccc(-c2cc(Cc3ccc(Br)cc3)no2)c(N)n1` [Example 220, 3-(3-(4-Bromo-benzyl)-isoxazol-5-yl)-pyridine-2,6-diamine], the MIC in assay [1] and in assay [3] (setting [4]) was 6.25 µg/mL (≈ 18.1 µM) in each case.

Turning to `Nc1ccc(-c2cc(Cc3ccc(Cc4ccc(F)cc4)o3)no2)c(N)n1` [Example 221, 3-(3-(5-(4-Fluoro-benzyl)-furan-2-ylmethyl)-isoxazol-5-yl)-pyridin-2,6-diamine], the figures for the MIC in assay [1] and in assay [3] (setting [4]) were 0.39 µg/mL (≈ 1.07 µM) and 1.56 µg/mL (≈ 4.28 µM), respectively.

As for `Nc1ccc(-c2cc(Cc3ccc(Oc4ccccn4)cc3)no2)c(N)n1` [Example 222, 3-(3-(4-(Pyridin-2-yloxy)-benzyl)-isoxazol-5-yl)-pyridin-2,6-diamine], the MIC in assay [1] and in assay [3] (setting [4]) was 0.39 µg/mL (≈ 1.09 µM) each time.

`Nc1ccc(-c2cc(Cc3ccc(Cc4ccccc4)nc3)no2)c(N)n1` [Example 223, 3-(3-(6-Benzyl-pyridin-3-ylmethyl)-isoxazol-5-yl)-pyridin-2,6-diamine]: the MIC in assay [1] and in assay [3] (setting [4]) was 0.39 µg/mL (≈ 1.09 µM) each time.

As to `CNc1ccc(-c2cc(Cc3ccc(OCc4ccccc4)nc3)no2)c(N)n1` [Example 224, 3-(3-(6-Benzyloxy-pyridin-3-ylmethyl)-isoxazol-5-yl)-N^6-methyl-pyridin-2,6-diamine], the MIC in assay [1] came out at 0.2 µg/mL (≈ 0.516 µM); in assay [3] (setting [4]), 0.39 µg/mL (≈ 1.01 µM).

Take `Nc1nc(NCCO)ccc1-c1cc(Cc2ccc(OCc3ccccc3)nc2)no1` [Example 225, 2-(6-Amino-5-(3-(6-benzyloxy-pyridin-3-ylmethyl)-isoxazol-5-yl)-pyridin-2-ylamino)-ethanol]: the MIC in assay [1] was 3.13 µg/mL (≈ 7.5 µM); in assay [3] (setting [4]), 0.78 µg/mL (≈ 1.87 µM).

For the compound `COCC(=O)Nc1ccc(-c2cc(Cc3ccc(OCc4ccccc4)nc3)no2)c(N)n1` [Example 226, N-(6-Amino-5-(3-(6-benzyloxy-pyridin-3-ylmethyl)-isoxazol-5-yl)-pyridin-2-yl)-2-methoxy-acetamide], the MIC in assay [1] and in assay [3] (setting [4]) was 0.39 µg/mL (≈ 0.875 µM) each time.

Regarding `CCOC(=O)CNc1ccc(-c2cc(Cc3ccc(OCc4ccccc4)nc3)no2)c(N)n1` [Example 227, (6-Amino-5-(3-(6-benzyloxy-pyridin-3-ylmethyl)-isoxazol-5-yl)-pyridin-2-ylamino)-acetic acid ethyl ester], the MIC in assay [1] and in assay [3] (setting [4]) was 1.56 µg/mL (≈ 3.39 µM) in each case.

On to `CN(C)c1ncccc1-c1cc(Cc2ccc(OCc3ccccc3)cc2)no1` [Example 228, (3-(3-(4-Benzyloxy-benzyl)-isoxazol-5-yl)-pyridin-2-yl)-dimethyl-amine], for which the MIC in assay [1] and in assay [3] (setting [4]) was 0.78 µg/mL (≈ 2.02 µM) throughout.
